Data reported in ChEMBL document CHEMBL3588817, “Discovery of 4,5,6,7-Tetrahydrobenzo[1,2-d]thiazoles as Novel DNA Gyrase Inhibitors Targeting the ATP-Binding Site” (J Med Chem, 2015).
≈ marks a conversion by molar mass, not a printed value.

Legend:
[1] = molecular target: T1, DNA gyrase (Escherichia coli, UniProt P0AES4+P0AES6); experiment: Binding affinity to Escherichia coli DNA gyrase subunit B N-terminal 24 kDa domain by SPR assay; type: protein-complex assay
[2] = molecular target: T1, DNA gyrase; experiment: Inhibition of Escherichia coli DNA gyrase using relaxed pNO1 plasmid and biotinylated oligonucelotide incubated for 30 mins by fluorescence based DNA super-coiling assay; type: protein-complex assay
[3] = molecular target: DNA gyrase (Staphylococcus aureus) (UniProt P0A0K8+P20831); experiment: Inhibition of Staphylococcus aureus DNA gyrase assessed as residual enzyme activity at 100 uM using relaxed pNO1 plasmid and biotinylated oligonucelotide incubated for 30 mins by fluorescence based DNA super-coiling assay; type: protein-complex assay
[4] = tested on: Escherichia coli; experiment: Inhibition of Escherichia coli DNA topoisomerase 4 assessed as residual enzyme activity at 100 uM using relaxed pNO1 plasmid and biotinylated oligonucelotide incubated for 30 mins by fluorescence based DNA relaxation assay
[5] = molecular target: Topoisomerase IV (Staphylococcus aureus) (UniProt P0C1U9+P0C1S7); experiment: Inhibition of Staphylococcus aureus DNA topoisomerase 4 assessed as residual enzyme activity at 100 uM using relaxed pNO1 plasmid and biotinylated oligonucelotide incubated for 30 mins by fluorescence based DNA relaxation assay; type: protein-complex assay
[6] = tested on: Escherichia coli; experiment: Antibacterial activity against wild type Escherichia coli ATCC 25922 by broth microdilution method; type: functional
[7] = tested on: Escherichia coli; experiment: Antibacterial activity against efflux deficient Escherichia coli tolC::Tn10 lacking functional tolC gene by broth microdilution method
[8] = tested on: Escherichia coli; experiment: Antibacterial activity against Escherichia coli imp4213::Tn10 by broth microdilution method; type: functional
[9] = tested on: Escherichia coli; experiment: Antibacterial activity against wild type Escherichia coli ATCC 25922 assessed as inhibition of microbial growth at 50 uM by broth microdilution method; type: functional; details: read-out: GI
[10] = tested on: Pseudomonas aeruginosa; experiment: Antibacterial activity against Pseudomonas aeruginosa ATCC 27853 assessed as inhibition of microbial growth at 50 uM by broth microdilution method; type: functional; details: read-out: GI
[11] = tested on: Enterococcus faecalis; experiment: Antibacterial activity against Enterococcus faecalis ATCC 29212 assessed as inhibition of microbial growth at 50 uM by broth microdilution method; type: functional; details: read-out: GI
[12] = tested on: Staphylococcus aureus; experiment: Antibacterial activity against Staphylococcus aureus 25923 assessed as inhibition of microbial growth at 50 uM by broth microdilution method; type: functional; details: read-out: GI
[13] = tested on: Escherichia coli; experiment: Antibacterial activity against wild type Escherichia coli ATCC 25922 assessed as inhibition of microbial growth by broth microdilution method; type: functional
[14] = tested on: Pseudomonas aeruginosa; experiment: Antibacterial activity against Pseudomonas aeruginosa ATCC 27853 assessed as inhibition of microbial growth by broth microdilution method; type: functional
[15] = tested on: Enterococcus faecalis; experiment: Antibacterial activity against Enterococcus faecalis ATCC 29212 assessed as inhibition of microbial growth by broth microdilution method; type: functional
[16] = tested on: Staphylococcus aureus; experiment: Antibacterial activity against Staphylococcus aureus 25923 assessed as inhibition of microbial growth by broth microdilution method; type: functional
[17] = Inhibition of Escherichia coli DNA Gyrase ATPase activity assessed as reduction in conversion of NADH to NAD+ using linear pBR322 substrate
[18] = molecular target: DNA gyrase (Staphylococcus aureus, UniProt P0A0K8+P20831); experiment: Inhibition of Staphylococcus aureus DNA gyrase using relaxed pNO1 plasmid and biotinylated oligonucelotide incubated for 30 mins by fluorescence based DNA super-coiling assay; type: protein-complex assay
[19] = molecular target: Topoisomerase IV (Staphylococcus aureus, UniProt P0C1S7+P0C1U9); experiment: Inhibition of Staphylococcus aureus DNA topoisomerase 4 using relaxed pNO1 plasmid and biotinylated oligonucelotide incubated for 30 mins by fluorescence based DNA relaxation assay; type: protein-complex assay
[20] = Inhibition of Escherichia coli DNA topoisomerase 4 using relaxed pNO1 plasmid and biotinylated oligonucelotide incubated for 30 mins by fluorescence based DNA relaxation assay

Row | Kd [1] | IC50 [2] | Activity [3] | Activity [4] | Activity [5] | MIC [6] | MIC [7] | MIC [8] | MIC [13] | MIC [14] | MIC [15] | MIC [16] | IC50 [17] | SMILES | inhibition of growth at 50 µM [9] | inhibition of growth at 50 µM [10] | inhibition of growth at 50 µM [11] | inhibition of growth at 50 µM [12] | IC50 [18] | IC50 [19] | IC50 [20]
1 | 0.15 µM | 0.093 µM | 113% | 97% | 99% | > 256 µg/mL | 32 µg/mL (≈ 59.9 µM) | 64 µg/mL (≈ 120 µM) | > 125 µM | > 125 µM | > 125 µM | > 125 µM | – | COC(=O)CCC(=O)Nc1nc2c(s1)C[C@@H](NC(=O)c1cc(Br)c(Br)[nH]1)CC2 | < 50% | < 50% | < 50% | < 50% | – | – | –
2 | 0.049 µM | 0.13 µM | 87% | 98% | 102% | > 256 µg/mL | > 256 µg/mL | > 256 µg/mL | > 125 µM | > 125 µM | > 125 µM | > 125 µM | 0.66 µM | O=C(O)CC(=O)Nc1nc2c(s1)C[C@@H](NC(=O)c1cc(Cl)c(Cl)[nH]1)CC2 | < 50% | < 50% | < 50% | < 50% | – | – | –
3 | – | 0.15 µM | – | 98% | 101% | – | – | – | > 125 µM | > 125 µM | > 125 µM | > 125 µM | – | CC(=O)Nc1nc2c(s1)C[C@@H](NC(=O)c1cc(Br)c(Br)[nH]1)CC2 | < 50% | < 50% | < 50% | < 50% | 26 µM | – | –
4 | – | 0.3 µM | – | 72% | 97% | > 256 µg/mL | > 256 µg/mL | > 256 µg/mL | > 125 µM | > 125 µM | > 125 µM | > 125 µM | – | O=C(O)CCC(=O)Nc1nc2c(s1)C[C@@H](NC(=O)c1cc(Cl)c(Cl)[nH]1)CC2 | < 50% | < 50% | < 50% | < 50% | 10 µM | – | –
5 | 0.05 µM | 0.4 µM | 63% | 97% | 101% | > 256 µg/mL | 32 µg/mL (≈ 74.2 µM) | 32 µg/mL (≈ 74.2 µM) | > 125 µM | > 125 µM | > 125 µM | > 125 µM | – | COC(=O)CC(=O)Nc1nc2c(s1)C[C@@H](NC(=O)c1cc(Cl)c(Cl)[nH]1)CC2 | < 50% | < 50% | < 50% | < 50% | – | – | –
6 | 0.072 µM | 0.096 µM | – | – | 74% | > 256 µg/mL | 16 µg/mL (≈ 30.8 µM) | 32 µg/mL (≈ 61.5 µM) | > 125 µM | > 125 µM | > 125 µM | > 125 µM | – | COC(=O)CC(=O)Nc1nc2c(s1)C[C@@H](NC(=O)c1cc(Br)c(Br)[nH]1)CC2 | < 50% | < 50% | < 50% | < 50% | 110 µM | – | 86 µM
7 | 3 µM | 12 µM | 90% | 101% | 102% | > 256 µg/mL | 64 µg/mL (≈ 152 µM) | 64 µg/mL (≈ 152 µM) | > 125 µM | > 125 µM | > 125 µM | > 125 µM | 25 µM | Nc1nc2c(s1)C[C@@H](NC(=O)c1cc(Br)c(Br)[nH]1)CC2 | < 50% | < 50% | < 50% | < 50% | – | – | –
8 | – | 7.6 µM | 117% | 96% | 103% | > 256 µg/mL | > 256 µg/mL | > 256 µg/mL | > 125 µM | > 125 µM | > 125 µM | > 125 µM | 22 µM | O=C(O)CC(=O)Nc1nc2c(s1)C[C@@H](NC(=O)c1cc3ccccc3[nH]1)CC2 | < 50% | < 50% | < 50% | < 50% | – | – | –
9 | – | 41 µM | 118% | 96% | 92% | > 256 µg/mL | 64 µg/mL (≈ 152 µM) | 64 µg/mL (≈ 152 µM) | > 125 µM | > 125 µM | > 125 µM | > 125 µM | – | Nc1nc2c(s1)C[C@H](NC(=O)c1cc(Br)c(Br)[nH]1)CC2 | < 50% | < 50% | < 50% | < 50% | – | – | –
10 | – | 2.6 µM | 71% | 97% | 98% | > 256 µg/mL | 64 µg/mL (≈ 124 µM) | 256 µg/mL (≈ 497 µM) | > 125 µM | > 125 µM | > 125 µM | > 125 µM | – | COC(=O)CC(=O)Nc1ncc2c(n1)CCC(NC(=O)c1cc(Br)c(Br)[nH]1)C2 (stereo not drawn) | < 50% | < 50% | < 50% | < 50% | – | – | –

Row | SMILES | Kd [1] | IC50 [2] | Activity [3] | Activity [4] | Activity [5] | MIC [6] | MIC [7] | MIC [8] | MIC [13] | MIC [14] | MIC [15] | MIC [16] | IC50 [17] | inhibition of growth at 50 µM [9] | inhibition of growth at 50 µM [10] | inhibition of growth at 50 µM [11] | inhibition of growth at 50 µM [12] | IC50 [18] | IC50 [19] | IC50 [20]
11 | O=C(O)CCC(=O)Nc1nc2c(s1)C[C@@H](NC(=O)c1cc(Br)c(Br)[nH]1)CC2 | 0.01 µM | 0.049 µM | – | 90% | – | > 256 µg/mL | 256 µg/mL (≈ 492 µM) | > 256 µg/mL | > 125 µM | > 125 µM | > 125 µM | > 125 µM | – | < 50% | < 50% | < 50% | < 50% | 270 µM | 110 µM | –
12 | O=C(O)CC(=O)Nc1nc2c(s1)C[C@@H](NC(=O)c1cc(Br)c(Br)[nH]1)CC2 | 0.042 µM | 0.069 µM | – | – | – | > 256 µg/mL | > 256 µg/mL | > 256 µg/mL | > 125 µM | > 125 µM | > 125 µM | > 125 µM | – | < 50% | < 50% | < 50% | < 50% | 86 µM | 76 µM | 74 µM
13 | O=C(O)C(=O)Nc1nc2c(s1)C[C@@H](NC(=O)c1cc(Cl)c(Cl)[nH]1)CC2 | – | 0.59 µM | – | 82% | – | > 256 µg/mL | > 256 µg/mL | > 256 µg/mL | > 125 µM | > 125 µM | > 125 µM | > 125 µM | – | < 50% | < 50% | < 50% | < 50% | 300 µM | 170 µM | –
14 | CCOC(=O)C(=O)Nc1nc2c(s1)C[C@@H](NC(=O)c1cc(Br)c(Br)[nH]1)CC2 | – | 0.1 µM | – | 74% | – | > 256 µg/mL | 128 µg/mL (≈ 246 µM) | > 256 µg/mL | > 125 µM | > 125 µM | > 125 µM | > 125 µM | 0.57 µM | < 50% | < 50% | < 50% | < 50% | 80 µM | 180 µM | –
15 | O=C(O)C(=O)Nc1nc2c(s1)C[C@@H](NC(=O)c1cc(Br)c(Br)[nH]1)CC2 | – | – | – | – | – | > 256 µg/mL | 256 µg/mL (≈ 520 µM) | > 256 µg/mL | > 125 µM | > 125 µM | > 125 µM | > 125 µM | 0.48 µM | < 50% | < 50% | < 50% | < 50% | 120 µM | 78 µM | 200 µM
16 | CCOC(=O)C(=O)Nc1nc2c(s1)C[C@@H](NC(=O)c1cc(Cl)c(Cl)[nH]1)CC2 | – | 0.4 µM | – | – | – | > 256 µg/mL | 256 µg/mL (≈ 594 µM) | > 256 µg/mL | > 125 µM | > 125 µM | > 125 µM | > 125 µM | – | < 50% | < 50% | < 50% | < 50% | 320 µM | 290 µM | 300 µM
